System: 349418-098-R tumor spheroid viability
Assay: Anticancer human tumor 349418-098-R patient-derived lung adenocarcinoma cell line growth inhibition
Conditions: spheroids with HUVEC and MSC; for IC50: curve of first compound; for viability, T/C: stronger effect = lower value; active means viability on the fitted dose curve at most 10% of control; inactive means the rest
In short: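 Single agents and combinations were tested on spheroids built from tumor cells plus HUVEC and hMSC, at half-log dilutions starting at or near clinical Cmax, else 10 microM; final DMSO 0.25% (v/v).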
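Further: spheroids exposed to compound for 7 days before measurement.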
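Wherever viability, T/C is given: percent of vehicle control viability with 100% = DMSO-treated spheroids.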

Cn1ncnc1[C@H]1c2n[nH]c(=O)c3cc(F)cc(c23)N[C@@H]1c1ccc(F)cc1 + COc1cc2c(cc1O)CCNC21CSC2c3c(OC(C)=O)c(C)c4c(c3C(COC1=O)N1C(O)C3Cc5cc(C)c(OC)c(O)c5C(C21)N3C)OCO4
0.956 µM: IC50 (second compound 94.9 pM)
< 0.00949 µM: IC50 (second compound 0.000949 µM) | IC50 (second compound 0.003 µM)
active: viability, T/C (second compound 30 pM, first compound 3 µM) 9.75% | viability, T/C (second compound 94.9 pM, first compound 3 µM) 4.92% | viability, T/C (second compound 0.0003 µM, first compound 3 µM) 2.39% | viability, T/C (second compound 0.000949 µM, first compound 0.00949 µM) 0.87% | viability, T/C (second compound 0.000949 µM, first compound 0.03 µM) 0.43% | viability, T/C (second compound 0.000949 µM, first compound 0.0949 µM) 0.53% | viability, T/C (second compound 0.000949 µM, first compound 0.3 µM) 0.21% | viability, T/C (second compound 0.000949 µM, first compound 0.949 µM) 0.13% | viability, T/C (second compound 0.000949 µM, first compound 3 µM) 0.19% | viability, T/C (second compound 0.003 µM, first compound 0.00949 µM) 1.57% | viability, T/C (second compound 0.003 µM, first compound 0.03 µM) 1.54% | viability, T/C (second compound 0.003 µM, first compound 0.0949 µM) 1.41% | viability, T/C (second compound 0.003 µM, first compound 0.3 µM) 1.35% | viability, T/C (second compound 0.003 µM, first compound 0.949 µM) 2.21% | viability, T/C (second compound 0.003 µM, first compound 3 µM) 3.32%
0.107 µM: IC50 (second compound 0.0003 µM)
inactive: viability, T/C (second compound 30 pM, first compound 0.00949 µM) 87.2% | viability, T/C (second compound 30 pM, first compound 0.03 µM) 97.2% | viability, T/C (second compound 30 pM, first compound 0.0949 µM) 88.8% | viability, T/C (second compound 30 pM, first compound 0.3 µM) 93.5% | viability, T/C (second compound 30 pM, first compound 0.949 µM) 86.8% | viability, T/C (second compound 94.9 pM, first compound 0.00949 µM) 93.2% | viability, T/C (second compound 94.9 pM, first compound 0.03 µM) 89.6% | viability, T/C (second compound 94.9 pM, first compound 0.0949 µM) 85.6% | viability, T/C (second compound 94.9 pM, first compound 0.3 µM) 94.8% | viability, T/C (second compound 94.9 pM, first compound 0.949 µM) 50.3% | viability, T/C (second compound 0.0003 µM, first compound 0.00949 µM) 66.4% | viability, T/C (second compound 0.0003 µM, first compound 0.03 µM) 68.5% | viability, T/C (second compound 0.0003 µM, first compound 0.0949 µM) 47.8% | viability, T/C (second compound 0.0003 µM, first compound 0.3 µM) 34.9% | viability, T/C (second compound 0.0003 µM, first compound 0.949 µM) 11.5%
1.64 µM: IC50 (second compound 30 pM)

CC1COCCN1c1cc(-c2ccnn2C)c2ccnc(-c3ccn[nH]3)c2n1 (stereo not given) + CC[C@@]1(O)C(=O)OCc2c1cc1n(c2=O)Cc2cc3c(CN(C)C)c(O)ccc3nc2-1
inactive: viability, T/C (second compound 0.003 µM, first compound 0.0316 µM) 107% | viability, T/C (second compound 0.003 µM, first compound 0.1 µM) 35.1% | viability, T/C (second compound 0.003 µM, first compound 0.316 µM) 16% | viability, T/C (second compound 0.003 µM, first compound 1 µM) 15% | viability, T/C (second compound 0.003 µM, first compound 3.16 µM) 15.6% | viability, T/C (second compound 0.003 µM, first compound 10 µM) 14% | viability, T/C (second compound 0.00949 µM, first compound 0.0316 µM) 42.4% | viability, T/C (second compound 0.00949 µM, first compound 0.1 µM) 20.4% | viability, T/C (second compound 0.00949 µM, first compound 0.316 µM) 13.6% | viability, T/C (second compound 0.00949 µM, first compound 1 µM) 16.2% | viability, T/C (second compound 0.00949 µM, first compound 3.16 µM) 12.8% | viability, T/C (second compound 0.00949 µM, first compound 10 µM) 12% | viability, T/C (second compound 0.03 µM, first compound 0.0316 µM) 13.5% | viability, T/C (second compound 0.03 µM, first compound 0.1 µM) 11.5% | viability, T/C (second compound 0.03 µM, first compound 0.316 µM) 9.56% | viability, T/C (second compound 0.03 µM, first compound 1 µM) 11.4% | viability, T/C (second compound 0.03 µM, first compound 3.16 µM) 11.6% | viability, T/C (second compound 0.03 µM, first compound 10 µM) 10.8%
0.079 µM: IC50 (second compound 0.003 µM)
< 0.0316 µM: IC50 (second compound 0.00949 µM) | IC50 (second compound 0.03 µM) | IC50 (second compound 0.0949 µM) | IC50 (second compound 0.3 µM)
active: viability, T/C (second compound 0.0949 µM, first compound 0.0316 µM) 5.41% | viability, T/C (second compound 0.0949 µM, first compound 0.1 µM) 6.47% | viability, T/C (second compound 0.0949 µM, first compound 0.316 µM) 5.98% | viability, T/C (second compound 0.0949 µM, first compound 1 µM) 6.27% | viability, T/C (second compound 0.0949 µM, first compound 3.16 µM) 7.68% | viability, T/C (second compound 0.0949 µM, first compound 10 µM) 8.39% | viability, T/C (second compound 0.3 µM, first compound 0.0316 µM) 3.23% | viability, T/C (second compound 0.3 µM, first compound 0.1 µM) 2.54% | viability, T/C (second compound 0.3 µM, first compound 0.316 µM) 2.76% | viability, T/C (second compound 0.3 µM, first compound 1 µM) 3.58% | viability, T/C (second compound 0.3 µM, first compound 3.16 µM) 4.37% | viability, T/C (second compound 0.3 µM, first compound 10 µM) 5.17%

Source: PubChem BioAssay AID1845197 (Molecular Pharmacology Branch, DTP, NCI, 2023)
